Experimental data taken from ChEMBL document CHEMBL3627713, “Triazole linked mono carbonyl curcumin-isatin bifunctional hybrids as novel anti tubulin agents: Design, synthesis, biological evaluation and molecular modeling studies” (Bioorg Med Chem, 2015).
The source made the active and inactive calls. No cut-off for these calls is given here.

Tests used:
[1] = system: HCT-116; assay: Disruption of microtubule organization in human HCT116 cells at 5 uM after 48 hrs by DAPI staining-based laser scanning confocal microscopic analysis; assay type: cell-based
[2] = target: Tubulin; assay: Inhibition of tubulin (unknown origin) polymerization after 1 hr by ELISA plate reader analysis; assay type: protein-complex assay, Homo sapiens
[3] = system: PC-3; assay: Cytotoxicity against human PC3 cells assessed as growth inhibition after 48 hrs by sulforhodamine B assay; assay type: functional, cell-based; conditions: PC-3, 48 h
[4] = system: HCT-116; assay: Cytotoxicity against human HCT116 cells assessed as growth inhibition after 48 hrs by sulforhodamine B assay; assay type: functional, cell-based; conditions: HCT-116, 48 h
[5] = system: COLO 205; assay: Cytotoxicity against human COLO205 cells assessed as growth inhibition after 48 hrs by sulforhodamine B assay; assay type: functional, cell-based; conditions: COLO 205, 48 h
[6] = system: THP-1; assay: Cytotoxicity against human THP1 cells assessed as growth inhibition after 48 hrs by sulforhodamine B assay; assay type: functional, cell-based; conditions: THP-1, 48 h
[7] = Cytotoxicity against human MIAPaCa2 cells assessed as growth inhibition at 50 uM after 48 hrs by sulforhodamine B assay relative to control; assay type: functional; conditions: MIA PaCa-2, 48 h, read-out: GI
[8] = system: PC-3; assay: Cytotoxicity against human PC3 cells assessed as growth inhibition at 50 uM after 48 hrs by sulforhodamine B assay relative to control; assay type: functional; conditions: PC-3, 48 h, read-out: GI
[9] = system: CAKI-1; assay: Cytotoxicity against human Caki1 cells assessed as growth inhibition at 50 uM after 48 hrs by sulforhodamine B assay relative to control; assay type: functional; conditions: CAKI-1, 48 h, read-out: GI
[10] = system: HeLa; assay: Cytotoxicity against human HeLa cells assessed as growth inhibition at 50 uM after 48 hrs by sulforhodamine B assay relative to control; assay type: functional; conditions: read-out: GI
[11] = system: A549; assay: Cytotoxicity against human A549 cells assessed as growth inhibition at 50 uM after 48 hrs by sulforhodamine B assay relative to control; assay type: functional; conditions: A549, 48 h, read-out: GI
[12] = system: HCT-116; assay: Cytotoxicity against human HCT116 cells assessed as growth inhibition at 50 uM after 48 hrs by sulforhodamine B assay relative to control; assay type: functional; conditions: HCT-116, 48 h, read-out: GI
[13] = system: COLO 205; assay: Cytotoxicity against human COLO205 cells assessed as growth inhibition at 50 uM after 48 hrs by sulforhodamine B assay relative to control; assay type: functional; conditions: COLO 205, 48 h, read-out: GI
[14] = system: THP-1; assay: Cytotoxicity against human THP1 cells assessed as growth inhibition at 50 uM after 48 hrs by sulforhodamine B assay relative to control; assay type: functional; conditions: THP-1, 48 h, read-out: GI

IC50 [2] | SMILES | Activity [1] | IC50 [3] | IC50 [4] | IC50 [5] | IC50 [6] | inhibition of growth at 50 µM [7] | inhibition of growth at 50 µM [8] | inhibition of growth at 50 µM [9] | inhibition of growth at 50 µM [10] | inhibition of growth at 50 µM [11] | inhibition of growth at 50 µM [12] | inhibition of growth at 50 µM [13] | inhibition of growth at 50 µM [14]
2.36 µM | COc1cc(/C=C/C(=O)/C=C/c2cc(OC)c(OC)c(OC)c2)ccc1OCc1cn(CCN2C(=O)C(=O)c3ccccc32)nn1 | Active | 5.67 µM | 1.12 µM | 4.15 µM | 2.87 µM | 25% | 85% | 25% | 20% | 22% | 99% | 86% | 89%
 | COc1cc(/C=C/C(=O)/C=C/c2ccccc2)ccc1OCc1cn(CCN2C(=O)C(=O)c3ccccc32)nn1 |  | 9.56 µM | 5.16 µM | 8.28 µM | 7.64 µM | 20% | 60% | 15% | 12% | 10% | 71% | 64% | 66%
 | COc1cc(/C=C/C(=O)/C=C/c2cc(OC)c(OC)c(OC)c2)ccc1OCc1cn(CCN2C(=O)C(=O)c3cc(Cl)ccc32)nn1 |  | 7.14 µM | 2.17 µM | 5.97 µM | 4.56 µM | 13% | 80% | 13% | 15% | 22% | 89% | 84% | 86%
 | COc1cccc(/C=C/C(=O)/C=C/c2ccc(OCc3cn(CCN4C(=O)C(=O)c5ccccc54)nn3)c(OC)c2)c1 |  | 9.16 µM | 3.92 µM | 7.34 µM | 4.41 µM | 15% | 66% | 17% | 14% | 13% | 77% | 69% | 70%
 | COc1cc(/C=C/C(=O)/C=C/c2cc(OC)c(OC)c(OC)c2)ccc1OCc1cn(CCN2C(=O)C(=O)c3cc(Br)ccc32)nn1 |  | 6.44 µM | 2.92 µM | 5.29 µM | 3.14 µM | 15% | 69% | 12% | 15% | 13% | 75% | 70% | 73%
 | COc1ccc(/C=C/C(=O)/C=C/c2ccc(OCc3cn(CCN4C(=O)C(=O)c5cc(Cl)ccc54)nn3)c(OC)c2)cc1OC |  | 13.7 µM | 6.94 µM | 11.5 µM | 9.33 µM | 12% | 73% | 10% | 13% | 17% | 79% | 75% | 77%
3.97 µM | COc1ccc(/C=C/C(=O)/C=C/c2ccc(OCc3cn(CCN4C(=O)C(=O)c5ccccc54)nn3)c(OC)c2)cc1OC |  | 7.64 µM | 2.67 µM | 5.78 µM | 4.31 µM | 21% | 79% | 22% | 18% | 19% | 90% | 80% | 82%
 | COc1ccccc1/C=C/C(=O)/C=C/c1ccc(OCc2cn(CCN3C(=O)C(=O)c4ccccc43)nn2)c(OC)c1 |  | 8.97 µM | 4.56 µM | 8.16 µM | 6.34 µM | 13% | 64% | 15% | 12% | 11% | 75% | 67% | 70%
7.16 µM | COc1cc(/C=C/C(=O)/C=C/c2cccc3ccccc23)ccc1OCc1cn(CCN2C(=O)C(=O)c3ccccc32)nn1 |  | 8.54 µM | 4.79 µM | 7.99 µM | 6.15 µM | 11% | 77% | 14% | 10% | 10% | 89% | 80% | 83%
5.41 µM | COc1ccc(/C=C/C(=O)/C=C/c2ccc(OCc3cn(CCN4C(=O)C(=O)c5ccccc54)nn3)c(OC)c2)cc1 |  | 8.95 µM | 3.45 µM | 6.72 µM | 4.96 µM | 17% | 70% | 20% | 15% | 15% | 81% | 72% | 75%
